# Reference: the supplement of paper PMC9663587
# What was measured:
# [1] = compound: Cc1nn(C)c(COc2ccc(N3CCN(S(=O)(=O)N(C)C)CC3)cc2)c1-c1cccc2c(CCCOc3cccc4ccccc34)c(C(=O)O)n(CCN3CCOCC3)c12
# Ceritinib/LDK378 = compound: Cc1cc(Nc2ncc(Cl)c(Nc3ccccc3S(=O)(=O)C(C)C)n2)c(OC(C)C)cc1C1CCNCC1 [Ceritinib/LDK378]
# LEE011/Ribociclib [2] = compound: T1, CN(C)C(=O)c1cc2cnc(Nc3ccc(N4CCNCC4)cn3)nc2n1C1CCCC1 [LEE011/Ribociclib]
# Doxorubicin = compound: COc1cccc2c1C(=O)c1c(O)c3c(c(O)c1C2=O)C[C@@](O)(C(=O)CO)C[C@@H]3O[C@H]1C[C@H](N)[C@H](O)[C@H](C)O1 [Doxorubicin]
# [3] = compound: CCc1cnn2c(NCc3ccc[n+]([O-])c3)cc(N3CCCC[C@H]3CCO)nc12
# Pictilisib/GDC0941 = compound: CS(=O)(=O)N1CCN(Cc2cc3nc(-c4cccc5[nH]ncc45)nc(N4CCOCC4)c3s2)CC1 [Pictilisib/GDC0941]
# BSJ-03-123 = compound: CC(=O)c1c(C)c2cnc(Nc3ccc(N4CCN(CCOCCOCCOCCNC(=O)COc5cccc6c5C(=O)N(C5CCC(=O)NC5=O)C6=O)CC4)cn3)nc2n(C2CCCC2)c1=O [BSJ-03-123]; test: increase in dead-cell fraction, 72 h; higher = more death;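 further: breast cancer cell lines in 384-well plates, stained with Hoechst plus LIVE/DEAD far red dye and imaged, cells above an LDR intensity threshold counted dead, Hoechst-negative corpses included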
# [4] = compound: CCN1CCN(Cc2ccc(Nc3ncc(F)c(-c4cc(F)c5nc(C)n(C(C)C)c5c4)n3)nc2)CC1; test: as above
# LEE011/Ribociclib [5] = compound: T1, LEE011/Ribociclib; test: as above
# [6] = compound: CC(=O)c1c(C)c2cnc(Nc3ccc(N4CCNCC4)cn3)nc2n(C2CCCC2)c1=O; test: as above
# Neratinib/HKI272 = compound: CCOc1cc2ncc(C#N)c(Nc3ccc(OCc4ccccn4)c(Cl)c3)c2cc1NC(=O)/C=C/CN(C)C [Neratinib/HKI272]; test: as above
# 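Wherever GR50, 72 h is given: breast cancer and non-malignant breast epithelial cell lines, Deep Dye Drop or Dye Drop imaging, nine half-log doses, GR normalized to time-zero plates and DMSO-only controls.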
cell line,measurement,setting,value
MDAMB453,"GR50, 72 h",[1],> 10 µM
same,"GR50, 72 h",Ceritinib/LDK378,0.37 µM
same,"GR50, 72 h",LEE011/Ribociclib [2],0.0388 µM
same,"GR50, 72 h",Doxorubicin,0.00587 µM
same,"GR50, 72 h",[3],0.0114 µM
same,"GR50, 72 h",Pictilisib/GDC0941,0.455 µM
same,increase in dead-cell fraction,BSJ-03-123; 0.001 µM,-0.0008
same,increase in dead-cell fraction,BSJ-03-123; 0.003162 µM,-0.0002
same,increase in dead-cell fraction,BSJ-03-123; 0.01 µM,-0.0018
same,increase in dead-cell fraction,BSJ-03-123; 0.03162 µM,0.0081
same,increase in dead-cell fraction,BSJ-03-123; 0.1 µM,0.0016
same,increase in dead-cell fraction,BSJ-03-123; 0.3162 µM,0.0031
same,increase in dead-cell fraction,BSJ-03-123; 1 µM,0.0138
same,increase in dead-cell fraction,BSJ-03-123; 3.162 µM,0.007
same,increase in dead-cell fraction,BSJ-03-123; 10 µM,0.0618
same,increase in dead-cell fraction,[4]; 0.001 µM,0.0151
same,increase in dead-cell fraction,[4]; 0.003162 µM,0.0243
same,increase in dead-cell fraction,[4]; 0.01 µM,0.117
same,increase in dead-cell fraction,[4]; 0.03162 µM,0.134
same,increase in dead-cell fraction,[4]; 0.1 µM,0.124
same,increase in dead-cell fraction,[4]; 0.3162 µM,0.104
same,increase in dead-cell fraction,[4]; 1 µM,0.15
same,increase in dead-cell fraction,[4]; 3.162 µM,0.147
same,increase in dead-cell fraction,[4]; 10 µM,0.626
same,increase in dead-cell fraction,LEE011/Ribociclib [5]; 0.001 µM,0.0026
same,increase in dead-cell fraction,LEE011/Ribociclib [5]; 0.003162 µM,0.0128
same,increase in dead-cell fraction,LEE011/Ribociclib [5]; 0.01 µM,0.0136
same,increase in dead-cell fraction,LEE011/Ribociclib [5]; 0.03162 µM,0.016
same,increase in dead-cell fraction,LEE011/Ribociclib [5]; 0.1 µM,0.025
same,increase in dead-cell fraction,LEE011/Ribociclib [5]; 0.3162 µM,0.0275
same,increase in dead-cell fraction,LEE011/Ribociclib [5]; 1 µM,0.0212
same,increase in dead-cell fraction,LEE011/Ribociclib [5]; 3.162 µM,0.0344
same,increase in dead-cell fraction,LEE011/Ribociclib [5]; 10 µM,0.05
same,increase in dead-cell fraction,[6]; 0.0003162 µM,0.0265
same,increase in dead-cell fraction,[6]; 0.001 µM,0.0374
same,increase in dead-cell fraction,[6]; 0.003162 µM,0.016
same,increase in dead-cell fraction,[6]; 0.01 µM,0.0502
same,increase in dead-cell fraction,[6]; 0.03162 µM,0.0578
same,increase in dead-cell fraction,[6]; 0.1 µM,0.115
same,increase in dead-cell fraction,[6]; 0.3162 µM,0.124
same,increase in dead-cell fraction,[6]; 1 µM,0.123
same,increase in dead-cell fraction,[6]; 3.162 µM,0.117
same,increase in dead-cell fraction,Neratinib/HKI272; 0.0003162 µM,0.0316
same,increase in dead-cell fraction,Neratinib/HKI272; 0.001 µM,0.0419
same,increase in dead-cell fraction,Neratinib/HKI272; 0.003162 µM,0.0613
same,increase in dead-cell fraction,Neratinib/HKI272; 0.01 µM,0.0661
same,increase in dead-cell fraction,Neratinib/HKI272; 0.03162 µM,0.119
same,increase in dead-cell fraction,Neratinib/HKI272; 0.1 µM,0.106
